Assay results taken from patent publication US6762176B1, “2-aminopyridine derivatives, their use as medicines and pharmaceutical compositions containing them” (Societe de Consells de Recherches et D'Applications …, priority 1998, dated 2004).
Counter-ions that a name gives are not always drawn.

Row | melting point [°C] | SMILES
1 | 111 to 113 | Cc1cc(N)nc(CCCCNC(=O)/C=C/c2ccc3c(c2)OCO3)c1.O=C(O)/C=C/C(=O)O [Example 31, (E)-N-[4-(6-amino-4-methyl-2-pyridinyl)butyl]-3-(1,3-benzodioxole-5-yl)-2-propenamide fumarate]
2 | 163 to 165 | Cc1cc(N)nc(CCCCNC/C=C/c2ccccc2)c1.O=C(O)/C=C/C(=O)O [Example 30, N-[4-(6-amino-4-methyl-2-pyridinyl)butyl]-N-[(E)-3-phenyl-2-propenyl]amine fumarate]
3 | 131 to 136 | Cc1cc(N)nc(CCCCNC(=O)C2(C)CCc3c(C)c(O)c(C)c(C)c3O2)c1.O=C(O)/C=C/C(=O)O (centres unmarked)
4 | 176 to 178 | Cc1cc(N)nc(CCCCNC(=O)c2ccc3c(c2)OCO3)c1.Cl [Example 23, N-[(6-amino-4-methyl-2-pyridinyl)butyl]-1,3-benzodioxole-5-carboxamide hydrochloride]
5 | 224 to 226 | Cc1cc(N)nc(CCCCNCc2ccc3c(c2)OCO3)c1.O=C(O)/C=C/C(=O)O [Example 29, N-[4-(6-amino-4-methyl-2-pyridinyl)butyl]-N-(1,3-benzodioxole-5-ylmethyl)amine fumarate]
6 | 60 to 62 | COc1cc(C=CCNCCCCc2cc(C)cc(N)n2)ccc1O (as salt: hydrochloride) [Example 26, 6-amino-N-[13-(4-hydroxy-3-metboxy-phenyl)-2-propenyl]4-methyl-2-pyridinebutanamine hydrochloride]
7 | 221 to 223 | Cc1c(C)c2c(c(C)c1O)CCC(C)(C(=O)N1CCN(CCCCc3ccc(N)nc3)CC1)O2.Cl (centres unmarked)
8 | 210 to 212 | Cc1c(C)c2c(c(C)c1O)CCC(C)(C(=O)N1CCN(CCC#Cc3ccc(N)nc3)CC1)O2.Cl (centres unmarked)
